{"source": "patent US20140018340A1", "about": "“Insulin Mimetic Active Comprising Oxodiperoxo Vanadates and a Pharmaceutical Composition Obtained Thereof” (priority 2011, published 2014)", "key": {"[1]": {"system": "Glut4 in 3T3-L1 adipocytes", "test": "In vitro assay of Glut 4 translocation (GFP-Glut4 transfected cells)", "type": "cell-based", "details": "GFP-Glut4 transfected 3T3-L1 adipocytes"}, "[2]": {"details": "dose inducing insulin like activity, from cited reference; cited from earlier work"}}, "data": [{"substance": "insulin: the hormone which regulates the body's glucose level and metabolism", "values": [{"measurement": "Glut4 translocation from cytosol to membrane", "setting": "[1]", "result": "gets translocated to the membrane on addition of insulin"}]}, {"substance": "pervanadate", "values": [{"measurement": "Dose in-vitro", "setting": "[2]", "result": 1, "unit": "mM"}]}]}
